Laboratory results: the NIST ThermoML archive (doi:10.1021/acs.jced.8b00554)
“And” between values parts separate entries of the source, which are not always exact repeats. Equal entries are not always repeated.

Assay: xn = mol fraction of the nth substance listed
Conditions: Liquid, Vibrating tube method

CCCCCCCCC [nonane] + CCCO
mass density
Conditions	313.15 K	323.15 K
100 kPa, x2 = 0.1231	–	696.08 kg/m3
100 kPa, x2 = 0.2315	–	700.11 kg/m3
100 kPa, x2 = 0.3229	–	704.16 kg/m3
100 kPa, x2 = 0.4272	–	709.94 kg/m3
100 kPa, x2 = 0.7021	741.23 kg/m3	732.13 kg/m3
100 kPa, x2 = 0.8941	766.16 kg/m3	757.59 kg/m3
1000 kPa, x2 = 0.7021	742.27 kg/m3	732.62 kg/m3
1010 kPa, x2 = 0.1231	–	696.28 kg/m3
1010 kPa, x2 = 0.2315	–	700.63 kg/m3
1010 kPa, x2 = 0.3229	–	704.67 kg/m3
1010 kPa, x2 = 0.4272	–	710.4 kg/m3
1010 kPa, x2 = 0.8941	–	758.12 kg/m3
1020 kPa, x2 = 0.8941	767.45 kg/m3	–
2000 kPa, x2 = 0.1231	–	697.28 kg/m3
2000 kPa, x2 = 0.8941	768.33 kg/m3	759.05 kg/m3
2010 kPa, x2 = 0.2315	–	701.62 kg/m3
2010 kPa, x2 = 0.3229	–	705.65 kg/m3
2010 kPa, x2 = 0.4272	–	711.37 kg/m3
2010 kPa, x2 = 0.7021	743.17 kg/m3	733.6 kg/m3
3000 kPa, x2 = 0.7021	744.09 kg/m3	–
3010 kPa, x2 = 0.2315	–	702.6 kg/m3
3010 kPa, x2 = 0.3229	–	706.63 kg/m3
3010 kPa, x2 = 0.4272	–	712.36 kg/m3
3010 kPa, x2 = 0.8941	769.22 kg/m3	760 kg/m3
3020 kPa, x2 = 0.1231	–	698.25 kg/m3
3020 kPa, x2 = 0.7021	–	734.56 kg/m3
4000 kPa, x2 = 0.2315	–	703.57 kg/m3
4000 kPa, x2 = 0.4272	–	713.31 kg/m3
4000 kPa, x2 = 0.8941	–	760.92 kg/m3
4010 kPa, x2 = 0.1231	–	699.22 kg/m3
4010 kPa, x2 = 0.3229	–	707.6 kg/m3
4010 kPa, x2 = 0.7021	745 kg/m3	–
4010 kPa, x2 = 0.8941	770.09 kg/m3	–
4020 kPa, x2 = 0.7021	–	735.53 kg/m3
5010 kPa, x2 = 0.1231	–	700.18 kg/m3
5010 kPa, x2 = 0.2315	–	704.52 kg/m3
5010 kPa, x2 = 0.4272	–	714.28 kg/m3
5010 kPa, x2 = 0.7021	745.89 kg/m3	736.47 kg/m3
5010 kPa, x2 = 0.8941	770.95 kg/m3	761.84 kg/m3
5020 kPa, x2 = 0.3229	–	708.55 kg/m3
6000 kPa, x2 = 0.3229	689.86 kg/m3	–
6000 kPa, x2 = 0.8941	771.82 kg/m3	–
6010 kPa, x2 = 0.1231	–	701.13 kg/m3
6010 kPa, x2 = 0.2315	670.36 kg/m3	705.46 kg/m3
6010 kPa, x2 = 0.3229	–	709.51 kg/m3
6010 kPa, x2 = 0.4272	717.03 kg/m3	715.23 kg/m3
6010 kPa, x2 = 0.7021	–	737.41 kg/m3
6010 kPa, x2 = 0.8941	–	762.78 kg/m3
6020 kPa, x2 = 0.1231	666.76 kg/m3	–
6020 kPa, x2 = 0.7021	746.77 kg/m3	–
7000 kPa, x2 = 0.1231	667.99 kg/m3	–
7000 kPa, x2 = 0.3229	691.15 kg/m3	–
7000 kPa, x2 = 0.8941	772.68 kg/m3	763.69 kg/m3
7010 kPa, x2 = 0.3229	–	710.46 kg/m3
7010 kPa, x2 = 0.7021	747.64 kg/m3	–
7020 kPa, x2 = 0.1231	–	702.05 kg/m3
7020 kPa, x2 = 0.2315	671.62 kg/m3	706.4 kg/m3
7020 kPa, x2 = 0.4272	718.27 kg/m3	716.18 kg/m3
7020 kPa, x2 = 0.7021	–	738.36 kg/m3
8000 kPa, x2 = 0.1231	669.23 kg/m3	–
8000 kPa, x2 = 0.3229	692.44 kg/m3	–
8010 kPa, x2 = 0.3229	–	711.38 kg/m3
8010 kPa, x2 = 0.4272	719.48 kg/m3	717.13 kg/m3
8010 kPa, x2 = 0.7021	748.52 kg/m3	739.3 kg/m3
8010 kPa, x2 = 0.8941	773.53 kg/m3	764.6 kg/m3
8020 kPa, x2 = 0.1231	–	702.98 kg/m3
8020 kPa, x2 = 0.2315	672.88 kg/m3	707.34 kg/m3
9000 kPa, x2 = 0.1231	670.48 kg/m3	–
9000 kPa, x2 = 0.2315	–	708.26 kg/m3
9000 kPa, x2 = 0.7021	749.39 kg/m3	740.23 kg/m3
9000 kPa, x2 = 0.8941	774.38 kg/m3	–
9010 kPa, x2 = 0.1231	–	703.89 kg/m3
9010 kPa, x2 = 0.3229	693.71 kg/m3	–
9010 kPa, x2 = 0.4272	720.71 kg/m3	718.05 kg/m3
9020 kPa, x2 = 0.2315	674.14 kg/m3	–
9020 kPa, x2 = 0.3229	–	712.32 kg/m3
9020 kPa, x2 = 0.8941	–	765.49 kg/m3
10000 kPa, x2 = 0.1231	–	704.81 kg/m3
10000 kPa, x2 = 0.8941	–	766.39 kg/m3
10010 kPa, x2 = 0.2315	675.41 kg/m3	–
10010 kPa, x2 = 0.3229	–	713.24 kg/m3
10010 kPa, x2 = 0.4272	721.93 kg/m3	718.99 kg/m3
10010 kPa, x2 = 0.7021	750.23 kg/m3	741.14 kg/m3
10020 kPa, x2 = 0.2315	–	709.17 kg/m3
10020 kPa, x2 = 0.8941	775.22 kg/m3	–
11000 kPa, x2 = 0.3229	–	714.15 kg/m3
11000 kPa, x2 = 0.8941	776.04 kg/m3	767.27 kg/m3
11010 kPa, x2 = 0.1231	672.98 kg/m3	705.72 kg/m3
11010 kPa, x2 = 0.2315	676.62 kg/m3	710.07 kg/m3
11010 kPa, x2 = 0.4272	723.15 kg/m3	719.89 kg/m3
11010 kPa, x2 = 0.7021	–	742.04 kg/m3
11020 kPa, x2 = 0.3229	696.2 kg/m3	–
11020 kPa, x2 = 0.7021	751.07 kg/m3	–
12000 kPa, x2 = 0.1231	674.18 kg/m3	–
12000 kPa, x2 = 0.3229	697.42 kg/m3	–
12010 kPa, x2 = 0.2315	677.87 kg/m3	–
12010 kPa, x2 = 0.3229	–	715.05 kg/m3
12010 kPa, x2 = 0.4272	724.32 kg/m3	–
12010 kPa, x2 = 0.7021	751.91 kg/m3	742.93 kg/m3
12020 kPa, x2 = 0.8941	776.87 kg/m3	–
13000 kPa, x2 = 0.2315	679.08 kg/m3	–
13000 kPa, x2 = 0.4272	725.44 kg/m3	–
13010 kPa, x2 = 0.1231	675.41 kg/m3	–
13010 kPa, x2 = 0.3229	698.65 kg/m3	–
13010 kPa, x2 = 0.8941	777.67 kg/m3	–
13020 kPa, x2 = 0.7021	752.73 kg/m3	–
14000 kPa, x2 = 0.1231	676.57 kg/m3	–
14010 kPa, x2 = 0.2315	680.27 kg/m3	–
14010 kPa, x2 = 0.3229	699.83 kg/m3	–
14010 kPa, x2 = 0.4272	726.63 kg/m3	–
14010 kPa, x2 = 0.8941	778.47 kg/m3	–
14020 kPa, x2 = 0.7021	753.54 kg/m3	–
15010 kPa, x2 = 0.1231	717.43 kg/m3 and 677.73 kg/m3	–
15010 kPa, x2 = 0.2315	681.42 kg/m3 and 721.96 kg/m3	–
15010 kPa, x2 = 0.3229	726.26 kg/m3	–
15010 kPa, x2 = 0.4272	727.76 kg/m3 and 732.14 kg/m3	–
15020 kPa, x2 = 0.3229	700.99 kg/m3	–
15020 kPa, x2 = 0.7021	754.35 kg/m3	–
15020 kPa, x2 = 0.8941	779.28 kg/m3	–
16000 kPa, x2 = 0.8941	780.06 kg/m3	–
16010 kPa, x2 = 0.2315	682.56 kg/m3 and 722.75 kg/m3	–
16010 kPa, x2 = 0.7021	755.14 kg/m3	–
16020 kPa, x2 = 0.1231	718.2 kg/m3	–
16020 kPa, x2 = 0.3229	702.15 kg/m3 and 727.04 kg/m3	–
16020 kPa, x2 = 0.4272	728.86 kg/m3 and 732.94 kg/m3	–
17000 kPa, x2 = 0.4272	729.95 kg/m3 and 733.7 kg/m3	–
17010 kPa, x2 = 0.1231	718.99 kg/m3	–
17010 kPa, x2 = 0.2315	683.64 kg/m3 and 723.54 kg/m3	–
17010 kPa, x2 = 0.3229	727.83 kg/m3	–
17010 kPa, x2 = 0.7021	755.92 kg/m3	–
17010 kPa, x2 = 0.8941	780.82 kg/m3	–
17020 kPa, x2 = 0.1231	679.98 kg/m3	–
17020 kPa, x2 = 0.3229	703.28 kg/m3	–
18000 kPa, x2 = 0.7021	756.69 kg/m3	–
18010 kPa, x2 = 0.1231	719.75 kg/m3	–
18010 kPa, x2 = 0.2315	684.75 kg/m3 and 724.3 kg/m3	–
18010 kPa, x2 = 0.3229	704.37 kg/m3 and 728.61 kg/m3	–
18010 kPa, x2 = 0.4272	734.49 kg/m3	–
18010 kPa, x2 = 0.8941	781.6 kg/m3	–
18020 kPa, x2 = 0.1231	681.03 kg/m3	–
18020 kPa, x2 = 0.4272	731.02 kg/m3	–
19000 kPa, x2 = 0.2315	725.04 kg/m3	–
19000 kPa, x2 = 0.3229	705.41 kg/m3	–
19000 kPa, x2 = 0.7021	757.45 kg/m3	–
19000 kPa, x2 = 0.8941	782.35 kg/m3	–
19010 kPa, x2 = 0.1231	682.1 kg/m3 and 720.5 kg/m3	–
19010 kPa, x2 = 0.2315	685.8 kg/m3	–
19010 kPa, x2 = 0.4272	732.06 kg/m3	–
19020 kPa, x2 = 0.3229	729.37 kg/m3	–
19020 kPa, x2 = 0.4272	735.24 kg/m3	–
20000 kPa, x2 = 0.1231	721.22 kg/m3	–
20010 kPa, x2 = 0.1231	683.05 kg/m3	–
20010 kPa, x2 = 0.2315	686.85 kg/m3	–
20010 kPa, x2 = 0.4272	736 kg/m3	–
20010 kPa, x2 = 0.7021	758.2 kg/m3	–
20010 kPa, x2 = 0.8941	783.1 kg/m3	–
20020 kPa, x2 = 0.2315	725.78 kg/m3	–
20020 kPa, x2 = 0.3229	706.48 kg/m3 and 730.09 kg/m3	–
20020 kPa, x2 = 0.4272	733.04 kg/m3	–
